The text below walks through data of paper PMC8617691, “Distigmasterol-Modified Acylglycerols as New Structured Lipids—Synthesis, Identification and Cytotoxicity” (Molecules, 2021).

One series has as its system THLE-2 hepatocytes. As to the kind of experiment: MTT cytotoxicity test, hepatocytes. The format is cell-based, human. As to conditions: THLE-2 cells, 100 µg/mL and lower concentrations, 48 h. The protocol: (§1) Distigmasterol-modified acylglycerols were examined for their cytotoxicity in normal human cells originating from the digestive system. The cells were treated for 48 h with increasing concentrations of dStigMAs, and cell proliferation, metabolic activity, and viability were assayed using the MTT test. The cytotoxic effects of the analyzed dStigMAs on CCD 841CoN colon mucosa cells, FHs 74 Int small intestine epithelial cells, and THLE-2 hepatocytes are presented in Figure 6.
(§2) The cytotoxicity of dStigMAs was analyzed at the maximum concentration of 100 µg/mL, which corresponded to doses of 83 µM of dStigC-PA, 81 µM of dStigC-OA, 76 µM of dStigS-PA, and 75 µM of dStigS-OA. The minimum doses tested were 10,000-fold lower. Cell viability and metabolic activity were assessed using the MTT test following the procedure described by Olejnik et al..
(§3) Figure 6 Effect of dStigMAs on (A) normal small intestinal epithelial cells (FHs 74 Int, ATCC® CCL241™), (B) normal colonic epithelial cells (CCD 841CoN, ATCC® CRL-179™), and (C) normal liver cells (THLE-2, ATCC® CRL-2706™).

The test system of series [1] is FHs 74 Int small intestine epithelial cells. As to the kind of experiment: MTT cytotoxicity test, small intestinal epithelial cells. The format is cell-based, human. The following applies: FHs 74 Int cells; for cytotoxicity (in words): 100 µg/mL and lower concentrations; for cytotoxicity (in words) / EC50: 48 h; for dose at which first cytotoxic symptoms were noted: 48 h treatment; for EC50: Homo sapiens, FHs74Int, read-out: median effective concentration (EC50). The protocol: as §1, §2, §3
(Formazan colour is commonly taken as a measure of viable cells.)

In series [2] the test system is CCD 841CoN colon mucosa cells. As to the kind of experiment: MTT cytotoxicity test, colon mucosa cells. The format is cell-based, human. The following applies: CCD 841CoN cells, 100 µg/mL and lower concentrations, 48 h. The method, then:
as §1, §2, §3

Series [3] is described as follows: MTT cytotoxicity test, hepatocytes. The format is cell-based, human. The following applies: human, THLE-2 normal liver cells (hepatocytes), liver cells (THLE-2), 100 µg/mL, read-out: cell proliferation and viability at the maximum dose. The protocol:
as §1, §2, §3

Series [4] can be described thus: MTT cytotoxicity test, small intestinal epithelial cells. The format is cell-based, human. As to conditions: human, FHs 74 Int normal small intestinal epithelial cells, FHs 74 Int cells, 100 µg/mL, 48 h, read-out: cell viability at the maximum concentration tested. The protocol:
as §1, §2, §3

Series [5] is described as follows: MTT cytotoxicity test, colon mucosa cells. The format is cell-based, human. As to conditions: human, CCD 841CoN normal colonic epithelial cells, colon cells (CCD 841CoN), 100 µg/mL, read-out: cell proliferation and viability at the maximum dose. The protocol:
as §1, §2, §3

Usually melting point stands for the temperature of the solid-liquid transition.

Structures are written as SMILES. Like-named read-outs stand apart in the source and are kept apart here.

Take `CCCCCCCCC=CCCCCCCCC(=O)OCC(COC(=O)CCC(=O)OC1CCC2(C)C(=CCC3C2CCC2(C)C(C(C)C=CC(CC)C(C)C)CCC32)C1)OC(=O)CCC(=O)OC1CCC2(C)C(=CCC3C2CCC2(C)C(C(C)C=CC(CC)C(C)C)CCC32)C1` (stereo not shown) [dStigS-OA, 2,3-Distigmasterylsuccinoyl-1-Oleoyl-sn-Glycerol]: the “cytotoxicity (in words)” value (in the series with THLE-2 hepatocytes; in series [1]; in series [2]) was “no cytotoxic activity” each time.

In the case of `CCCCCCCCCCCCCCCC(=O)OCC(COC(=O)O[C@H]1CC[C@@]2(C)C(=CC[C@H]3[C@@H]4CC[C@H]([C@H](C)/C=C/[C@@H](CC)C(C)C)[C@@]4(C)CC[C@@H]32)C1)OC(=O)O[C@H]1CC[C@@]2(C)C(=CC[C@H]3[C@@H]4CC[C@H]([C@H](C)/C=C/[C@@H](CC)C(C)C)[C@@]4(C)CC[C@@H]32)C1` (stereo partly shown) [dStigC-PA, 1,2-Distigmasterylcarbonoyl-3-Palmitoyl-sn-Glycerol], the viability at 48 h, 100 µg/mL in series [3] is 56.3%; in series [4], 17.5%; in series [5], 53.8%. The “dose at which first cytotoxic symptoms were noted” value in series [1] is on record as 0.1 µg/mL. Besides, the EC50 in series [1] is 0.32 µg/mL; in series [1] (value in brackets), 266 nM.

`CCCCCCCCCCCCCCCC(=O)OCC(COC(=O)CCC(=O)O[C@H]1CC[C@@]2(C)C(=CC[C@H]3[C@@H]4CC[C@H]([C@H](C)/C=C/[C@@H](CC)C(C)C)[C@@]4(C)CC[C@@H]32)C1)OC(=O)CCC(=O)O[C@H]1CC[C@@]2(C)C(=CC[C@H]3[C@@H]4CC[C@H]([C@H](C)/C=C/[C@@H](CC)C(C)C)[C@@]4(C)CC[C@@H]32)C1` (stereo partly shown) [dStigS-PA, 1,2-Distigmasterylsuccinoyl-3-Palmitoyl-sn-Glycerol] showed a melting point of 91 to 93 °C. The “cytotoxicity (in words)” value in the series on THLE-2 hepatocytes is given as “no cytotoxic activity”. Also, the “cytotoxicity (in words)” value in series [1] is listed as “no cytotoxic activity”. Besides, the “cytotoxicity (in words)” value in series [2] is “no cytotoxic activity”.

On to `CCCCCCCCC=CCCCCCCCC(=O)OCC(COC(=O)OC1CCC2(C)C(=CCC3C2CCC2(C)C(C(C)C=CC(CC)C(C)C)CCC32)C1)OC(=O)OC1CCC2(C)C(=CCC3C2CCC2(C)C(C(C)C=CC(CC)C(C)C)CCC32)C1` (stereo not shown) [dStigC-OA, 2,3-Distigmasterylcarbonoyl-1-Oleoyl-sn-Glycerol], for which the viability at 48 h, 100 µg/mL in series [3] is 48.9%; in series [4], 20.2%; in series [5], 59.4%. The “dose at which first cytotoxic symptoms were noted” value in series [1] stood at 0.1 µg/mL. Moreover, the EC50 turned out to be 0.47 µg/mL in series [1] and 381 nM in series [1] (value in brackets).
